# Counter-ions that a name gives are not always drawn.
# What was measured:
# [1] = stability of crystalline form versus the anhydrous mesylate salt; assay type: physicochemical; details: compared with the anhydrous mesylate salt
melting point,Structure (SMILES),stability of crystalline form / shelf life [1]
102.5 to 103.8 °C,C[C@@H](C(=O)c1ccc(OCc2ccccc2)cc1)N1CCC(O)(c2ccccc2)CC1,–
–,"C[C@@H]([C@@H](O)c1ccc(O)cc1)N1CCC(O)(c2ccccc2)CC1 [mesylate salt trihydrate, (1S,2S)-1-(4-Hydroxyphenyl)-2-(4-hydroxy-4-phenylpiperidino)-1-propanol, Methanesulfonate Salt Trihydrate]",more stable crystalline form than the anhydrous mesylate salt

# From patent US6570018B2 (Pfizer Inc, priority 2000, dated 2003)
